In PMC9241057, “Ru(II)arene(N^N bpy/phen)-based RAPTA complexes for in vitro anti-tumour activity in human glioblastoma cancer cell lines and in vivo toxicity studies in a zebrafish model” (RSC Advances, 2022):

Columns and labels:
[1] = test system: T98; assay: MTT cytotoxicity assay, T98; assay type: cell-based, human; settings: 72 h incubation
Method: (§1) The cytotoxic activity of prepared RAPTA complexes (4a–4h) was evaluated by following the standard procedure of the MTT experiment against a series of glioblastoma cells (LN 229, T98, U87MG) in triplicate. In order to accomplish this study, cells were maintained for 72 h with complexes of various concentrations ranging from 2–160 μM, taking cisplatin as a typical positive control.[22]
(§2) RAPTA complexes were dissolved in 1% DMSO, and 0.9% NaCl aqueous solution was used to dissolve cisplatin. A cell suspension was prepared and the number of cells taken was 2.5 × 10^4 mL^−1. The cells were seeded in 96-well plates (200 μL per well) and allowed 80% confluence prior to treatment. The cells were formerly treated with various concentrations (2.5–160 μM) of complex 4a–h while the control group was treated with PBS […]. After the 72 hours of incubation, 0.5% MTT solution was added to each well (20 μL) and further incubated for 4 hours at […]. The formazan crystals that were formed were dissolved in 150 μL DMSO and then the OD was measured by a microplate reader at 540 nm. The % growth inhibition of the control and treated cells were calculated and represented as the growth inhibition percentage as explained below.% growth inhibition = 100 − [(AD × 100)/AB]where AD is the absorbance measured in wells containing the treated and control samples and AB is the measured absorbance for the wells with media and a vehicle that served as the blank. IC50 was calculated using Graphpad Prism (version 6.0) where % cell viability was plotted against drug concentration.

[2] = Conductivity measurement; assay type: physicochemical; settings: 3 x 10^-5 M; for Conductivity (ΛM) 10% aq DMSO: in 10% aq DMSO; for Conductivity (ΛM) DMSO: in DMSO
Excerpt: (§3) concentrations gradually.
Origin Lab, version 8.5 was
(§4) equation (v) given below: […]
Conductivity measurement 7
complexes with DMSO and aqueous DMSO.
followed the previously described procedure. An orbital shaker was used to shake a known
Different ratios (0.5:1, 1:1,
saturated n-octanol to get the partition coefficient. The absorbance of aliquots of the aqueous

[3] = test system: VEGF; assay: VEGF Elisa test; assay type: cell-based, human; settings: U87MG and T98G, 1 to 20 μM
Excerpt: The vascular endothelial growth factor (VEGF), formerly known as the vascular permeability factor (VPF) is a signal protein produced by many cells, which stimulates blood vessel formation. In hypoxic conditions when blood circulation is insufficient in the cells, VEGF restores the oxygen supply to tissues.[26] Proper blood supply is required for solid tumour proliferation beyond a limited size; therefore, cancers that can express VEGF are able to grow and metastasize. Two cancer cells, i.e. U87MG and T98G were incubated with increased concentrations (1 to 20 μM) of 4c and 4d and the % of inhibition of VEGF was estimated by an ELISA reader.
The capture antibody was diluted to the working concentration in PBS without the carrier protein for coating the 96-well plate. The plate was sealed and incubated overnight at room temperature. It was then aspirated and washed three times with wash buffer and blocked by adding 300 μL of reagent diluent to each well and then incubating at room temperature for a minimum of 1 h. This aspiration was repeated again and then the plate was ready for sample addition.
The cells (U87MG and T98G) were treated for 48 h and the supernatants were collected; 100 μL of these samples were added per well and incubated for 2 h at room temperature. […] The optical density of each well was measured immediately by an Elisa reader (λexc = 450 nm).

[4] = target: bovine serum albumin (BSA) (Bos taurus, UniProt P02769); assay: BSA binding study, tryptophan emission quenching; settings: for n, number of binding sites (BSA): Scatchard equation; for kq, quenching rate constant (BSA): from KBSA and τo (1 × 10^−8 s)
Sequence of bovine serum albumin (BSA) (P02769 25-607): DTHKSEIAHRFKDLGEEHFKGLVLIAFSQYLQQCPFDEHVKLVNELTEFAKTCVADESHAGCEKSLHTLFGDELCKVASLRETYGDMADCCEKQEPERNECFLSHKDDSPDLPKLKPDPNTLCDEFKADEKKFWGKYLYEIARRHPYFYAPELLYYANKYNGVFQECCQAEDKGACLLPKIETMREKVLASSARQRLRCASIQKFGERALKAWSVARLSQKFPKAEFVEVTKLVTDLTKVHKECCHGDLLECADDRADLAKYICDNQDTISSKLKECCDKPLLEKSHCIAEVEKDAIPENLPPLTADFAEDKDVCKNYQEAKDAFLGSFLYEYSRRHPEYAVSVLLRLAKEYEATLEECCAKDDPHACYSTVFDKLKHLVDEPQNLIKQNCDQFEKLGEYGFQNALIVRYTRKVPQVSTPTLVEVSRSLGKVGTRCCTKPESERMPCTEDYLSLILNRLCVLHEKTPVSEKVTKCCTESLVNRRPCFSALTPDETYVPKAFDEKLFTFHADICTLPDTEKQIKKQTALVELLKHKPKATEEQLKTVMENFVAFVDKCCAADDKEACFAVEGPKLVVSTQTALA
Method: The KBSA of the complexes was obtained from Stern–Volmer plots by applying the well-known Stern–Volmer equation (Fig. S4 ^†). On the other hand, the quenching constants (kq) of 6.3 × 10^14 M^−1 s^−1 and 1.8 × 10^14 M^−1 s^−1 arising from biomolecular interactions were evaluated from KBSA and τo (1 × 10^−8 s) for the complexes 4c and 4d, correspondingly (Table S3 ^†). […]
Kapp × [Complex]50 = kEtBr × [EtBr]⋯⋯⋯(iii) […]
Stern-Volmer equation was followed for quantitative determination of the Stern-Volmer quenching constant (K SV).4 Origin (8.5) software was used to plot the fluorescence data to obtain linear plot of I0/I vs. [complex]. The value of KSV was calculated from the following […]
Where I0 = fluorescence intensity in absence of complex and I = fluorescence intensities in presence of complex of concentration [Q].
Protein binding studies 5
The main component is serum albumin proteins in drug transport and metabolism, as we all know. The interaction of the complex with […] serum albumin (BSA) was examined using a tryptophan emission quenching experiment. The association of the RAPTA complexes 4c and 4d with the protein BSA was detected using a tryptophan emission quenching assay. […]
as §3
Origin Lab, version 8.5 was […]
as §4

[5] = test system: T98G cell line; assay: Time-dependent ROS generation study, DCFH-DA staining; assay type: cell-based, human; settings: 20 μM, 2, 6 and 10 h
Method: The oxidative stress was measured by the level of intracellular ROS via 2′,7′-dichlorodihydrofluorescein diacetate (DCFH-DA) staining.[24] […] Herein, cells were treated with complexes 4c and 4d with a concentration of 20 μM for 2, 6 and 10 h. We observed a higher level of […] fluorescence with the increase in the incubation time because of ROS generation (Fig. 6).
Fig. 7 Graphical representation of the average DCF fluorescence intensity in the T98G cell line upon treatment with cisplatin and complexes 4c and 4d. Incubation time: 2 h, 6 h and 10 h.
Brain cancer cells were stained with 2′,7′-dichlorofluorescein diacetate (DCFDA) to measure the reactive oxygen species (ROS) and subsequent oxidative stress generated from RAPTA complexes. They were restained by the […] fluorescence intensity generated from oxidized DCFDA. The cancer cells were cultured in a 24-well plate till 70% confluency and treatment was carried out with the aforesaid complex for 24 hours. The ROS generation mediated by the complex was evaluated using DCFDA-2′,7′-dichlorofluorescein diacetate (25 μM) staining for 30 min. The cells were washed with PBS, followed by fresh media replenishment. The images were captured under the EVOS M5000 fluorescent live cell imager (Thermo Fisher Scientific, USA).

[6] = test system: U87MG; assay: MTT cytotoxicity assay, U87MG; assay type: cell-based, human; settings: 72 h incubation
Method: as §1, §2

SMILES: C1N2CN3CN1CP(C2)C3.Cc1ccc(C(C)C)cc1.Cc1ccnc2c1ccc1c(C)ccnc12.F[P-](F)(F)(F)(F)F.F[P-](F)(F)(F)(F)F.[Ru+2] [4c, [(η^6-p-Cymene)Ru^II(κ^2-N,N-4,7dimethylphenanthroline)(PTA)]·2PF6]
- IC50 [1]: 0.97 ± 0.02 µM
- Conductivity (ΛM) 10% aq DMSO [2]: 78 S cm2 mol-1
- Conductivity (ΛM) DMSO [2]: 76 S cm2 mol-1
- VEGF concentration with the increase in complex concentration [3]: constant decrease
- n, number of binding sites (BSA) [4]: 1
- kq, quenching rate constant (BSA) [4]: 6.3e+14 M⁻¹ s⁻¹
- average DCF fluorescence intensity (intracellular ROS) [5]: gradual increase with respect to the incubation time
- IC50 [6]: 0.97 ± 0.02 µM

SMILES: C1N2CN3CN1CP(C2)C3.Cc1ccc(C(C)C)cc1.F[P-](F)(F)(F)(F)F.F[P-](F)(F)(F)(F)F.[Ru+2].c1ccc(-c2ccnc3c2ccc2c(-c4ccccc4)ccnc23)cc1 [4d, [(η^6-p-Cymene)Ru^II(κ^2-N,N-4,7diphenylphenanthroline)(PTA)]·2PF6]
- IC50 [1]: 0.94 ± 0.02 µM
- Conductivity (ΛM) 10% aq DMSO [2]: 77 S cm2 mol-1
- Conductivity (ΛM) DMSO [2]: 74 S cm2 mol-1
- VEGF concentration with the increase in complex concentration [3]: constant decrease
- n, number of binding sites (BSA) [4]: 1
- K, binding constant with BSA ([4]; Scatchard plot): 52500 M⁻¹
- kq, quenching rate constant (BSA) [4]: 1.8e+14 M⁻¹ s⁻¹
- average DCF fluorescence intensity (intracellular ROS) [5]: gradual increase with respect to the incubation time
- IC50 [6]: 0.93 ± 0.02 µM
